In US7879843B2, “Benzothiazin-3-one compound and intermediate therefor” (Dainippon Sumitomo Pharma Co., Ltd., priority 2004, dated 2011):
Where a name gives a salt, the structure may show the parent alone. Each block holds one compound with its values, some of them ahead of it.

Experiments:
[1] = system: rat partial-meniscectomy models; assay: Pharmacological test on rat partial-meniscectomy models; type: in vivo; settings: 50 mg/kg, orally six times per week for 3 weeks, SD (IGS) male rats
Source text: SD (IGS) male rats aged 6 weeks (purchased from Charles River Japan Inc.) were used. The hair on the knee joint portion of right hind leg of each rat was shaved with a hair clipper under etherisation, and then the skin on the joint side of the lateral collateral ligament was incised along the ligament. Subsequently, the fascia was incised and the lateral collateral ligament was resected in a length of about 3 mm. Thereafter, the medial meniscus was exposed and the matters adhering to the meniscus were removed. The meniscus was picked up with tweezers and a part of the meniscus was cut off along the tweezers with microscissors. The fascia and the skin were sutured. One week after the above treatment, the administration of each test compound was started. The volume of the test compound administered was 10 ml/kg (solvent: 0.5% methyl cellulose) and the test compound was orally administered six times per week for 3 weeks. After the body weight was measured, the shinbone of the right hind leg was collected and fixed in 10% neutral buffered formalin. […] The average of scores for rats in each group was calculated and the degree of chondrodegeneration of a pathosis control group was taken as 100%. The chondrodegeneration inhibition rate of each compound was calculated by the following equation: Inhibition rate=1−(average score value of drug-treated group/score value of control group)×100

human MMP-13 = biological target: T1, human MMP-13 (Homo sapiens, UniProt P45452); assay: Inhibitory activity against MMP-13 (fluorogenic MCA substrate); type: biochemical; settings: activated human MMP-13, 37° C. for 12 hours
T1 construct: made in house; host or cells: COS-1 cells (pcDNA I vector), culture supernatant
Source text: As MMP-13, there was used one which had been prepared by genetic engineering (using a well-known human chondrocyte cDNA library as a template, cDNA fragments were amplified by PCR by the use of primers 5′-[…]-3′ (SEQ ID NO: 1) and 5′-[…]-3′ (SEQ ID NO: 2) and each of the cDNA fragments amplified was inserted in a vector pcDNA I, and the vector was introduced into COS-1 cells derived from Afurikamidorizaru kidney, followed by culture and the recovery of the supernatant of a culture medium) on the basis of the well-known genetic base sequence of human MMP-13 (J. Biol. Chem., 269 (24), 16766-16773 (1994)) and had been activated by maintaining the thus prepared MMP-13 at 37° C. for 2 hours in the presence of 1 mM mercury 4-aminophenylacetate.
Inhibitory activity against human MMP-13 was measured according to the method of C. G. Knight et al. (FEBS Lett., 296 (3), 263-266 (1992)).
That is, 45 μl of assay buffer (0.1M Tris-hydrochloric acid, 0.1M sodium chloride, 0.01M calcium chloride, 0.05% Brigy 35, pH=7.5) was placed in a 96-well micro-titer plate for fluorometry, and 5 μl of a solution of a test compound in dimethyl sulfoxide was added thereto. […] After the micro-titer plate was maintained at 37° C. for 12 hours to carry out the reaction, fluorescence was measured with the fluorescence plate reader to measure the residual enzyme activity.

melting point: 143.5 to 144.5 °C
Structure (SMILES): CCOC(=O)c1ccc2c(c1)N(CC(=O)NO)C(=O)[C@H](CCCc1ccc(OC)cc1)S2 (as salt: TFA) [Example 7, (−)-Ethyl 4-[2-(hydroxyamino)-2-oxoethyl]-2-[3-(4-methoxyphenyl)propyl]-3-oxo-3,4-dihydro-2H-1,4-benzothiazine-6-carboxylate]

Structure (SMILES): CCOC(=O)c1ccc2c(c1)N(CC(=O)NO)C(=O)[C@H](CCCc1ccc(OC)cc1)S2 [Example 7, (−)-Ethyl 4-[2-(hydroxyamino)-2-oxoethyl]-2-[3-(4-methoxyphenyl)propyl]-3-oxo-3,4-dihydro-2H-1,4-benzothiazine-6-carboxylate]
chondrodegeneration inhibition rate [1]: 52%

IC50 (human MMP-13): 44 nM
Structure (SMILES): COc1ccc(CCC[C@@H]2Sc3ccc(C(=O)O)cc3N(CC(=O)NO)C2=O)cc1 [Example 14, (−)-4-[2-(Hydroxyamino)-2-oxoethyl]-2-[3-(4-methoxyphenyl)propyl]-3-oxo-3,4-dihydro-2H-1,4-benzothiazine-6-carboxylic acid]
